Test: Pharmacokinetic study in the rat
Type: in vivo
Method: Pharmacokinetic Study in the Rat
Aqueous solution formulations of test compounds were prepared in 0.1% lactic acid at a pH of between about 5 and about 6. Male Sprague-Dawley rats (CD strain, Charles River Laboratories, Wilmington, Mass.) were dosed with test compounds via intravenous administration (IV) at a dose of 2.5 mg/kg or by oral gavage (PO) at a dose of 5 mg/kg. The dosing volume was 1 mL/kg for IV and 2 mL/kg for PO administration. Serial blood samples were collected from animals pre-dose, and at 2 (IV only), 5, 15, and 30 min, and at 1, 2, 4, 8, and 24 hours post-dose. Concentrations of test compounds in blood plasma were determined by liquid chromatography-mass spectrometry analysis (LC-MS/MS) (MDS SCIEX, API 4000, Applied Biosystems, Foster City, Calif.) with a lower limit of quantitation of 1 ng/mL.
Standard pharmacokinetic parameters were assessed by non-compartmental analysis (Model 201 for IV and Model 200 for PO) using WinNonlin (Version 4.0.1, Pharsight, Mountain View, Calif.). The maximum in the curve of test compound concentration in blood plasma vs. time is denoted Cmax. The area under the concentration vs. time curve from the time of dosing to the last measurable concentration (AUC(0-t)) was calculated by the linear trapezoidal rule. Oral bioavailability (F(%)), i.e. the dose-normalized ratio of AUC(0-t) for PO administration to AUC(0-t) for IV administration, was calculated as: F(%)=AUCPO/AUCIV×DoseIV/DosePO×100%

[1] = male Sprague-Dawley rats, blood plasma, IV 2.5 mg/kg or PO 5 mg/kg

## CC(C)n1nc(C(=O)N[C@H]2C[C@H]3CC[C@@H](C2)N3CC(O)CN2CCN(C(=O)C3CCCO3)CC2)c2ccccc21 (stereo partly drawn) [Example 2, 1-isopropyl-1H-indazole-3-carboxylic acid((1S,3R,5R)-8-{2-hydroxy-3-[4-(tetrahydrofuran-2-carbonyl)piperazin-1-yl]propyl}-8-aza-bicyclo[3.2.1]oct-3-yl)amide]
[1]
  AUC(0-t): 427 ng·h/mL
  Cmax: 55 ng/mL
rat, dose-normalized AUC(0-t) PO 5 mg/kg vs IV 2.5 mg/kg
  oral bioavailability (F(%)): about 30%
